# Measured values taken from patent publication US7803930B2, “Antisense modulation of apolipoprotein B-expression” (Isis Pharmaceuticals, Inc., priority 2002, dated 2010).
# In the oligonucleotide strings, read from the 5' end, every base follows the letter of its sugar. An asterisk marks phosphorothioate; unmarked linkages are phosphodiester. Other units and linkages are bracketed, terminal groups are in braces. A string of capitals states the bases alone. e = 2'-O-(2-methoxyethyl) (MOE); [5mC] = 5-methylcytosine; d = 2'-deoxy (DNA)
# Tested on: human apolipoprotein B mRNA
# Assay: Inhibition of human apolipoprotein B mRNA levels in HepG2 cells, quantitative real-time PCR
# Assay type: cell-based
# Details: for % INHIB (inhibition of human apolipoprotein B mRNA levels): HepG2 cells treated with 150 nM of compound, quantitative real-time PCR
# Description: The human hepatoblastoma cell line HepG2 was obtained from the American Type Culture Collection (Manassas, Va.). HepG2 cells were routinely cultured in Eagle's MEM supplemented with 10% fetal calf serum, non-essential amino acids, and 1 mM sodium pyruvate (Gibco/Life Technologies, Gaithersburg, Md.). Cells were routinely passaged by trypsinization and dilution when they reached 90% confluence. Cells were seeded into 96-well plates (Falcon-Primaria #3872) at a density of 7000 cells/well for use in RT-PCR analysis.
# When cells reached 80% confluency, they were treated with oligonucleotide. For cells grown in 96-well plates, wells were washed once with 200 μL OPTI-MEM™-1 reduced-serum medium (Gibco BRL) and then treated with 130 μL of OPTI-MEM™-1 containing 3.75 μg/mL LIPOFECTIN™ (Gibco BRL) and the desired concentration of oligonucleotide. After 4-7 hours of treatment, the medium was replaced with fresh medium. Cells were harvested 16-24 hours after oligonucleotide treatment.
# Quantitation of apolipoprotein B mRNA levels was determined by real-time quantitative PCR using the ABI PRISM™ 7700 Sequence Detection System (PE-Applied Biosystems, Foster City, Calif.) according to manufacturer's instructions. This is a closed-tube, non-gel-based, fluorescence detection system which allows high-throughput quantitation of polymerase chain reaction (PCR) products in real-time. As opposed to standard PCR, in which amplification products are quantitated after the PCR is completed, products in real-time quantitative PCR are quantitated as they accumulate. This is accomplished by including in the PCR reaction an oligonucleotide probe that anneals specifically between the forward and reverse PCR primers, and contains two fluorescent dyes. A reporter dye (e.g., JOE, FAM, or VIC, obtained from either Operon Technologies Inc., Alameda, Calif. or PE-Applied Biosystems, Foster City, Calif.) is attached to the 5′ end of the probe and a quencher dye (e.g., TAMRA, obtained from either Operon Technologies Inc., Alameda, Calif. or PE-Applied Biosystems, Foster City, Calif.) is attached to the 3′ end of the probe. When the probe and dyes are intact, reporter dye emission is quenched by the proximity of the 3′ quencher dye. During amplification, annealing of the probe to the target sequence creates a substrate that can be cleaved by the 5′-exonuclease activity of Taq polymerase. […] With each cycle, additional reporter dye molecules are cleaved from their respective probes, and the fluorescence intensity is monitored at regular intervals by laser optics built into the ABI PRISM™ 7700 Sequence Detection System. In each assay, a series of parallel reactions containing serial dilutions of mRNA from untreated control samples generates a standard curve that is used to quantitate the percent inhibition after antisense oligonucleotide treatment of test samples.
# PCR reagents were obtained from PE-Applied Biosystems, Foster City, Calif. RT-PCR reactions were carried out by adding 25 μL PCR cocktail (1× TAQMAN™ buffer A, 5.5 mM MgCl2, 300 μM each of DATP, dCTP and dGTP, 600 μM of dUTP, 100 nM each of forward primer, reverse primer, and probe, 20 Units RNAse inhibitor, 1.25 Units AMPLITAQ GOLD™, and 12.5 Units MuLV reverse transcriptase) to 96 well plates containing 25 μL total RNA solution. The RT reaction was carried out by incubation for 30 minutes at 48° C. Following a 10 minute incubation at 95° C. to activate the AMPLITAQ GOLD™, 40 cycles of a two-step PCR protocol were carried out: 95° C. for 15 seconds (denaturation) followed by 60° C. for 1.5 minutes (annealing/extension).
# Gene target quantities obtained by real time RT-PCR are normalized using either the expression level of GAPDH, a gene whose expression is constant, or by quantifying total RNA using RiboGreen™ (Molecular Probes, Inc. Eugene, Oreg.). GAPDH expression is quantified by real time RT-PCR, by being run simultaneously with the target, multiplexing, or separately. […]
# [1] = HepG2 cells, human apolipoprotein B mRNA, oligonucleotides targeting genomic sequence SEQ ID NO 334, averages from two experiments
# [2] = HepG2 cells, 50 nM, 24 hour (Table 40)
# [3] = HepG2 cells, 150 nM, 24 hour (Table 40)
# [4] = Table 1, HepG2 cells, 150 nM, averages from two experiments
# [5] = Table 17 variable gap, HepG2 cells, 50 nM, averages from three experiments
# [6] = Table 17 variable gap, HepG2 cells, 150 nM, averages from three experiments
substance,measurement,setting,value
"332785 (antisense GCTTCGCACC; linkages s4 o1 s4 (s phosphorothioate, o phosphodiester), sugars by position and methylation of C not given here; 2'-MOE wings flank a DNA gap) [compound 332785]",% Change in apolipoprotein B mRNA expression,"HepG2 cells, 10 nM, 24 hour (Table 41)",+5%
same,% Change in apolipoprotein B mRNA expression,"HepG2 cells, 50 nM, 24 hour (Table 41)",−2%
same,% Change in apolipoprotein B mRNA expression,"HepG2 cells, 150 nM, 24 hour (Table 41)",−4%
271031 (e[5mC]*eA*eG*eT*eG*dT*dG*dA*dT*dG*dA*d[5mC]*dA*d[5mC]*dT*eT*eG*eA*eT*eT; antisense) [compound 271031],% INHIB (inhibition of human apolipoprotein B mRNA levels),averages from two experiments,49%
270995 (antisense eT*e[5mC]*e[5mC]*eT*e[5mC]*dT*dT*dA*dG*d[5mC]*dG*dT*d[5mC]*d[5mC]*dA*eG*eT*eG*eT*eG) [compound 270995],% INHIB (inhibition of human apolipoprotein B mRNA levels),averages from two experiments,40%
301020 (eG*eG*e[5mC]*eG*eG*dG*d[5mC]*dT*d[5mC]*d[5mC]*dT*d[5mC]*dA*dG*d[5mC]*eG*eG*e[5mC]*eA*eG; antisense) [compound 301020],% INHIB (inhibition of human apolipoprotein B mRNA levels),averages from two experiments,85%
301115 (antisense e[5mC]*eA*e[5mC]*eA*eA*dG*dA*dG*dT*dA*dA*dG*dG*dA*dG*e[5mC]*eA*eG*eA*eG) [compound 301115],% INHIB,[1],39%
301100 (antisense eT*eA*e[5mC]*eT*eG*dT*dG*dA*d[5mC]*d[5mC]*dT*dA*dT*dG*d[5mC]*e[5mC]*eA*eG*eG*eA) [compound 301100],% INHIB,[1],55%
"332770 (antisense GCCTCAGTCTTCTTCGCACC; sugars from the 5' end e5 d10 e5, all phosphorothioate, methylation of C not given here) [compound 332770]",% Change in apolipoprotein B mRNA expression,[2],+7%
same,% Change in apolipoprotein B mRNA expression,[3],−22%
"308632 (GCCTCAGTCTGCTTCGCACC; 0-10-10 MOE gapmer, phosphorothioate, chemistry not fully specified) [compound 308632]",% INHIB 50 nm,"HepG2 cells, 50 nm oligonucleotide, variable deoxy gap position",41%
same,% INHIB 150 nm,"HepG2 cells, 150 nm oligonucleotide, variable deoxy gap position",97%
"332772 (antisense GCCTCAGTATTATTCGCACC; sugars from the 5' end e5 d10 e5, all phosphorothioate, methylation of C not given here) [compound 332772]",% Change in apolipoprotein B mRNA expression,[2],+99%
same,% Change in apolipoprotein B mRNA expression,[3],+84%
147788 (antisense eT*eT*eT*e[5mC]*eT*dG*dT*dT*dG*d[5mC]*d[5mC]*dA*d[5mC]*dA*dT*eT*eG*e[5mC]*e[5mC]*e[5mC]) [compound 147788],% INHIB,[4],95%
same,Percent Inhibition 50 nM,"Table 2, HepG2 cells, 50 nM",54%
same,Percent Inhibition 150 nM,"Table 2, HepG2 cells, 150 nM",63%
same,Percent Inhibition 250 nM,"Table 2, HepG2 cells, 250 nM",72%
301155 (eA*eA*eA*eG*eA*dA*dT*dT*dA*d[5mC]*d[5mC]*d[5mC]*dT*d[5mC]*d[5mC]*eA*e[5mC]*eT*eG*eA; antisense) [compound 301155],% INHIB,[1],33%
281630 (antisense e[5mC]*eG*eT*e[5mC]*e[5mC]*dA*dG*dT*dA*dA*dG*d[5mC]*dT*d[5mC]*d[5mC]*eA*e[5mC]*eG*e[5mC]*e[5mC]) [compound 281630],% INHIB (inhibition of human apolipoprotein B mRNA levels),averages from two experiments,82%
301074 (eG*eA*eG*e[5mC]*eT*d[5mC]*dA*dT*dA*d[5mC]*d[5mC]*dT*dG*dT*d[5mC]*e[5mC]*e[5mC]*eA*eG*eA; antisense) [compound 301074],% INHIB,[1],75%
281611 (antisense e[5mC]*eT*eG*eT*e[5mC]*d[5mC]*dT*d[5mC]*dT*d[5mC]*dT*d[5mC]*dT*dG*dG*eA*eG*e[5mC]*eT*e[5mC]) [compound 281611],% INHIB (inhibition of human apolipoprotein B mRNA levels),averages from two experiments,93%
301086 (antisense eG*eG*eT*eT*eT*dT*dG*d[5mC]*dT*dG*d[5mC]*d[5mC]*d[5mC]*dT*dA*e[5mC]*eA*eT*e[5mC]*e[5mC]) [compound 301086],% INHIB,[1],30%
270993 (antisense eT*eT*eG*eA*eA*dG*d[5mC]*dG*dA*dT*d[5mC]*dA*d[5mC]*dA*d[5mC]*eT*eG*e[5mC]*e[5mC]*e[5mC]) [compound 270993],% INHIB (inhibition of human apolipoprotein B mRNA levels),averages from two experiments,69%
"308633 (GCCTCAGTCTGCTTCGCGCC; 10-10-0 MOE gapmer, phosphorothioate, chemistry not fully specified) [compound 308633]",% INHIB 50 nm,[5],66%
same,% INHIB 150 nm,[6],83%
271043 (e[5mC]*e[5mC]*e[5mC]*eA*eG*dT*dG*dG*dT*dA*d[5mC]*dT*dT*dG*dT*eT*eG*eA*e[5mC]*eA; antisense) [compound 271043],% INHIB (inhibition of human apolipoprotein B mRNA levels),averages from two experiments,68%
147828 (antisense eA*e[5mC]*eG*eT*eT*dA*dT*d[5mC]*d[5mC]*dT*dT*dG*dA*dG*dT*e[5mC]*e[5mC]*e[5mC]*eT*eG) [compound 147828],% INHIB,[4],12%
308598 (antisense e[5mC]*e[5mC]*eT*e[5mC]*eA*dG*dT*d[5mC]*dT*dG*d[5mC]*dT*dT*d[5mC]*dG*e[5mC]*eA*e[5mC]*e[5mC]*eT) [compound 308598],% INHIB 50 nm,"Table 11 gene walk, HepG2 cells, 50 nM, averages from two experiments",59%
same,% INHIB 150 nm,"Table 11 gene walk, HepG2 cells, 150 nM, averages from two experiments",85%
308627 (eT*e[5mC]*eA*eG*eT*d[5mC]*dT*dG*d[5mC]*dT*dT*d[5mC]*dG*d[5mC]*dG*e[5mC]*e[5mC]*eT*eT*e[5mC]; antisense) [compound 308627],% INHIB 50 nm,"Table 13 gene walk, HepG2 cells, 50 nM, averages from two experiments",67%
same,% INHIB 150 nm,"Table 13 gene walk, HepG2 cells, 150 nM, averages from two experiments",89%
"308645 (antisense GCCTCAGTCTGCTTCGCGCC; 4-10-6 2'-MOE gapmer, phosphorothioate, chemistry not fully specified) [compound 308645]",% INHIB 50 nm,[5],57%
same,% INHIB 150 nm,[6],98%
271019 (antisense eT*eA*eT*eG*eT*d[5mC]*dT*dG*d[5mC]*dA*dG*dT*dT*dG*dA*eG*eA*eT*eA*eG) [compound 271019],% INHIB (inhibition of human apolipoprotein B mRNA levels),averages from two experiments,15%
"308630 (GCCTCAGTCTGCTTCGCGCC; 0-10-10 MOE gapmer, phosphorothioate, chemistry not fully specified) [compound 308630]",% INHIB 50 nm,[5],69%
same,% INHIB 150 nm,[6],89%
147827 (antisense e[5mC]*eT*eA*eA*eT*dG*dG*d[5mC]*d[5mC]*d[5mC]*d[5mC]*dT*dT*dG*dA*eT*eA*eA*eA*e[5mC]) [compound 147827],% INHIB,[4],13%
301179 (antisense e[5mC]*eA*eG*e[5mC]*eT*d[5mC]*dT*dA*dA*dT*d[5mC]*dT*dA*dA*dA*eG*eA*e[5mC]*eA*eT) [compound 301179],% INHIB,[1],22%
281609 (antisense e[5mC]*eG*eT*eT*eG*dG*dA*dG*dT*dA*dA*dG*d[5mC]*dG*d[5mC]*e[5mC]*eT*eG*eA*eG) [compound 281609],% INHIB (inhibition of human apolipoprotein B mRNA levels),averages from two experiments,70%
301120 (antisense eT*eA*eG*eG*e[5mC]*dA*dA*dA*dG*dG*dA*d[5mC]*dA*dT*dG*eA*eA*eT*eA*eG) [compound 301120],% INHIB,[1],30%
